Results: article PMC6523444, “Antioxidant Activities of Alkyl Substituted Pyrazine Derivatives of Chalcones—In Vitro and In Silico Study” (Antioxidants, 2019)

Assays:
[1] = MTS cytotoxicity assay, overnight, THP-1; assay type: cell-based, human; details: human, THP-1 cells, overnight, concentration range 100–0.2 µM
Experimental: (§1) Adherent liver hepatocellular carcinoma cell line HepG2 (ATCC, HB-8065) and human acute monocytic leukemia cell line in suspension THP-1 (ATCC, TIB-202) were purchased from American Type Culture Collection (ATCC, Manassas, VA, USA). Cell lines were maintained in complete DMEM/F12 medium (Sigma, D8437, St. Louis, MO, USA) and complete RPMI1640 (Sigma, R7388, St. Louis, MO, USA) respectively, supplemented with 10% Fetal Calf Serum (FCS, Sigma, F7524, St. Louis, MO, USA) at 37 °C in 5% CO2 atmosphere.
(§2) A cytotoxicity assay was performed using MTS CellTiter 96 AQueous One Solution Cell Proliferation Assay (Promega, G3580, Madison, WI, USA). Double dilutions of compounds were prepared in the concentration range of 100–0.2 µM within microplate wells. In each well, 5 × 10^4 cells were added and the plates were incubated overnight at 37 °C in 5% CO2 atmosphere. Following this, 10 µL of MTS (3-(4,5-dimethylthiazol-2-yl)-5-(3-carboxymethoxyphenyl)-2-(4-sulfophenyl)-2H -tetrazolium) reagent was dispensed per well and the plates were incubated for 1–6 h at 37 °C in 5% CO2 atmosphere. Control wells consisted of media only (blank) or cells with 1% DMSO added (control). The absorbance was recorded at 490 nm using a Wallac Victor2 microplate reader (PerkinElmer, Waltham, MA, USA). Results were analyzed in GraphPad Prism software (GraphPad Software, San Diego, CA, USA).

[2] = DPPH• radical scavenging assay; details: 100 µM DPPH•, 30 min, room temperature, dark; read-out: DPPH● radical scavenging (RS) activity IC50
Experimental: Vitamin C (Acros Organics, Geel, Belgium) was used as a standard antioxidant control and was prepared in the same way as tested compounds. Dilutions of tested compounds and vitamin C were prepared in a final concentration range of 1 mM–0.01 μM. One milliliter of compound solution was added to 1 mL of freshly prepared DPPH• solution (3.9 mg/50 mL ethanol; final concentration of 100 µM) and the reaction mixture was incubated in the dark at room temperature for 30 min. Absorbance was recorded at 540 nm using a 96-well Wallac Victor2 plate reader. Neutralization of DPPH• radical by a compound was calculated according to the following formula:RS activity (%) = [(A0 − A1)/A0] × 100(1) where A0/A1 is the control/sample absorbance. The results were averages of three measurements. The IC50 value was calculated using GraphPad Prism software (GraphPad Software, San Diego, CA, USA).

[3] = MTS cytotoxicity assay, overnight, HepG2; assay type: cell-based; details: human, HepG2 cells, concentration range 100–0.2 µM
Experimental: as §1, §2

[4] = design: method as in doi:10.1627/jpi.51.298; details: oxygen atmosphere, 50 °C, compared with para-coumaric acid fragment; cited from earlier work
[5] = system: aldose reductase ALR2; design: method as in doi:10.1007/s00706-018-2146-6; details: cited from earlier work
[6] = system: cell lines A549, PC3, MCF-7, HT-29 and WRL68; design: method as in PMID 22634834; details: cited from earlier work
[7] = system: THP-1; assay: MTS cytotoxicity assay, overnight, THP-1; assay type: cell-based, human; details: up to 100 μM overnight
Experimental: as §1, §2

[8] = system: THP-1 cells treated by H2O2; assay: Growth of THP-1 cells pre- or post-treated with H2O2, trypan blue exclusion assay; assay type: cell-based, human; details: for Effect against cytotoxic / pro-oxidative activity of H2O2 on THP-1 cells: compound at DPPH• IC50 concentration, before or after 5 mM H2O2; for Recovery of THP-1 cells after initial damage: from the 48 h point, H2O2 plus compound
Experimental: The substances without cytotoxic effects and with RS activity were tested for antioxidant potential at the cellular level using THP-1 cells treated by H2O2 [28]. The cells were exposed to the IC50 concentrations of the compounds determined by the DPPH• assay. Compounds were applied 30 min either before or after exposure to 5 mM of H2O2, which is equivalent to the cytotoxic ED50 dose of H2O2 for the THP-1 cells. The cell growth was analyzed every 24 h, via the trypan blue exclusion assay using a Bürker-Türk hemocytometer (Brand GMBH + CO KG, Wertheim, Germany), during a 4-day period. All assays were carried out in triplicates. The comparison of mean values was done by the two-tailed Student’s t-test.

[9] = system: THP-1 cells; details: cited from earlier work

Row | SMILES | IC50 [1] | IC50 [2] | IC50 [3] | also measured
1 | O=C(/C=C/c1ccccc1O)c1ccccc1 [Compound 1] | 70 µM | > 1000 µM | > 100 µM | 
2 | O=C(/C=C/c1ccccc1O)c1cnccn1 [Compound 1a] | 40 µM | > 1000 µM | > 100 µM | RS activity in styrene auto-oxidation [4]: significant RS activity
3 | CCCc1cnc(C(=O)/C=C/c2ccccc2O)cn1 [Compound 1b] | > 100 µM |  | > 100 µM | 
4 | CC(C)c1cnc(C(=O)/C=C/c2ccccc2O)cn1 [Compound 1c] | 96 µM | > 1000 µM | > 100 µM | 
5 | CCCCc1cnc(C(=O)/C=C/c2ccccc2O)cn1 [Compound 1d] | 27 µM | > 1000 µM | 86 µM | 
6 | CC(C)Cc1cnc(C(=O)/C=C/c2ccccc2O)cn1 [Compound 1e] | 94 µM |  | > 100 µM | 
7 | CC(C)(C)c1cnc(C(=O)/C=C/c2ccccc2O)cn1 [Compound 1f] | > 100 µM |  | > 100 µM | 
8 | O=C(/C=C/c1cccc(O)c1)c1ccccc1 [Compound 2] | 51 µM | > 1000 µM | > 100 µM | 
9 | O=C(/C=C/c1cccc(O)c1)c1cnccn1 [Compound 2a] | 50 µM | > 1000 µM | 100 µM | ALR2 inhibition activity [5]: moderate ALR2 inhibition activity
10 | CCCc1cnc(C(=O)/C=C/c2cccc(O)c2)cn1 [Compound 2b] | 48 µM |  | > 100 µM | 
11 | CC(C)c1cnc(C(=O)/C=C/c2cccc(O)c2)cn1 [Compound 2c] | 83 µM | > 1000 µM | 97 µM | 
12 | CCCCc1cnc(C(=O)/C=C/c2cccc(O)c2)cn1 [Compound 2d] | 67 µM | > 1000 µM | > 100 µM | 
13 | CC(C)Cc1cnc(C(=O)/C=C/c2cccc(O)c2)cn1 [Compound 2e] | > 100 µM |  | > 100 µM | 
14 | CC(C)(C)c1cnc(C(=O)/C=C/c2cccc(O)c2)cn1 [Compound 2f] | > 100 µM |  | > 100 µM | 
15 | O=C(/C=C/c1ccc(O)cc1)c1ccccc1 [Compound 3] | > 100 µM | > 1000 µM | > 100 µM | Cytotoxicity against A549, PC3, MCF-7, HT-29 and WRL68 [6]: significant cytotoxicity; ALR2 inhibition activity [5]: comparable ALR2 inhibition
16 | O=C(/C=C/c1ccc(O)cc1)c1cnccn1 [Compound 3a] | 97 µM | > 1000 µM | > 100 µM | ALR2 inhibition activity [5]: moderate ALR2 inhibition activity; RS activity in styrene auto-oxidation [4]: significant RS activity
17 | CCCc1cnc(C(=O)/C=C/c2ccc(O)cc2)cn1 [Compound 3b] | 94 µM |  | > 100 µM | 
18 | CC(C)c1cnc(C(=O)/C=C/c2ccc(O)cc2)cn1 [Compound 3c] | 78 µM | > 1000 µM | > 100 µM | 
19 | CCCCc1cnc(C(=O)/C=C/c2ccc(O)cc2)cn1 [Compound 3d] | 83 µM | > 1000 µM | > 100 µM | 
20 | CC(C)Cc1cnc(C(=O)/C=C/c2ccc(O)cc2)cn1 [Compound 3e] | > 100 µM |  | > 100 µM | 
21 | CC(C)(C)c1cnc(C(=O)/C=C/c2ccc(O)cc2)cn1 [Compound 3f] | > 100 µM |  | > 100 µM | 
22 | COc1cc(/C=C/C(=O)c2ccccc2)ccc1O [Compound 4] | > 100 µM |  | > 100 µM | 
23 | COc1cc(/C=C/C(=O)c2cnccn2)ccc1O [Compound 4a] | > 100 µM | 186 µM | > 100 µM | Cytotoxicity on THP-1 cells, in words [7]: non-toxic; RS activity in styrene auto-oxidation [4]: significant RS activity; Effect against cytotoxic / pro-oxidative activity of H2O2 on THP-1 cells [8]: lowest effect
24 | COc1cc(/C=C/C(=O)c2cnc(C(C)C)cn2)ccc1O [Compound 4c] | > 100 µM | 39 µM | > 100 µM | Cytotoxicity on THP-1 cells, in words [7]: non-toxic; Attenuation of H2O2 effect on THP-1 cells, compound added before H2O2 ([8]; compound at DPPH• IC50 concentration 30 min before 5 mM H2O2, 4 days): most efficient reduction of cytotoxic effect of H2O2; Effect against cytotoxic / pro-oxidative activity of H2O2 on THP-1 cells [8]: greater attenuation of H2O2 effects; Recovery of THP-1 cells after initial damage [8]: considerably greater
25 | COc1cc(/C=C/C(=O)c2cnc(CC(C)C)cn2)ccc1O [Compound 4e] | > 100 µM | 46 µM | > 100 µM | Cytotoxicity on THP-1 cells, in words [7]: non-toxic; Effect of the pure substance on the growth of THP-1 cells ([8]; compound alone at its DPPH• IC50 concentration, 96 h, Figure 2a): no considerable effects; Effect against cytotoxic / pro-oxidative activity of H2O2 on THP-1 cells [8]: greater attenuation of H2O2 effects; Recovery of THP-1 cells after initial damage [8]: considerably greater
26 | COc1cc(/C=C/C(=O)c2cnc(C(C)(C)C)cn2)ccc1O [Compound 4f] | 36 µM |  | > 100 µM | 
27 | OO [Compound H2O2, hydrogen peroxide] |  |  |  | Cytotoxic ED50 dose for THP-1 cells [9]: 5000 µM
